According to patent US20090305225A1, “Inhibition of Creatine Uptake to Promote Weight Loss” (priority 2005, published 2009):

Key:
Type in all cases: in vivo, rat
[1] = tested on: hypothalamic creatine and phosphocreatine; experiment: Creatine assay (HPLC) of hypothalamic blocks; details: 48 hours after 0.4 um/kg
Description: Hypothalamic blocks were rapidly dissected from animals treated icv with vehicle or CoPP at the indicated doses and snap-frozen in liquid nitrogen. They were stored at -80 degrees C. until they were crushed into a powder under liquid nitrogen and homogenized in 0.5 M PCA. Samples were then centrifuged at 4 degrees C. for 10 minutes at 15,000×g and the resulting supernatant neutralized with 1 M KOH. HPLC analysis was performed essentially as described. Samples were injected onto a Partisil 10 SAX analytical column which was eluted […] starting with Buffer A (0.01M H2PO4) and changing to Buffer B ([…]). The column was run on a Waters HPLC equipped with a Waters 996 Photodiode Array Detector and a Waters 717+ Auto Sampler. Both creatine and phosphocreatine standards were run with each sample set. Results are expressed as nanomoles per mg wet weight.

[2] = tested on: creatine transporter (CrT) mRNA; experiment: Real-Time PCR of creatine transporter mRNA in hypothalami of CoPP-treated rats; details: hypothalamus, 48 hours after icv, normalized to L32 mRNA, mean ± SEM
Description: RNA was purified with RNAase-free DNase (Promega) at 37 degrees C. for 30 min. The first strand of cDNA was synthesized by adding 1 ug of purified RNA from each sample to 20 ul containing MMLV reverse transcriptase (Invitrogen Life Tech). Creatine transporter (CrT) gene expression was further quantatified by Real-Time PCR using sense primer: 5′[…]′ (SEQ ID NO: 1); antisense primer: 5′[…]-3′ (SEQ ID NO:2) and TaqMan probe: 5′[…]-3′ (SEQ ID NO: 3) (MMG-Biotech). The rat ribosomal protein L32 gene was used as a loading control. Each cDNA sample (1 ul) derived from the 20 ul reverse transcription reaction and 1 ul RNA template was mixed with 24 ul master mixture (Perkin Elmer) in a 96-well TaqMan plate. The PCR was run in an ABI prism 7700 thermocycler (Applied Biosystems) at 50 degrees C. for 2 min and 95 degrees C. for 10 min; this was followed by 95 degrees C. for 15 sec and 60 degrees C. for 1 min for 40 cycles. The data were analyzed using software supplied with the ABI prism 7700.

[3] = tested on: 11G2L (creatine transporter mRNA); experiment: Northern blot of 11G2L in hypothalamic RNA
Description: Northern Blots were used to confirm the results we obtained from the differential display. Six additional rats from each group (saline, CoPP, and fasted) were used in Northern Blot experiments. Total RNA (15 ug) extracted from the hypothalami of these rats was loaded on 1.3% formaldehyde-agarose gels. After 3.5 hours running at 56V, the gels were transferred to Hybrond-N+ membrane (Amersham, Piscataway, N.J.). The cloning inserts were released from PCR-TRAP Vectors by PCR amplification and then gel-purified with the Wizard®DNA Clean-up System (Promega). The inserts were labeled with [alpha^32P]dCTP (Perkin Elmer) using a random primers DNA labeling kit (Invitrogen, San Diego, Calif.). Labeled probe (25 ng) was denatured and then hybridized with a membrane which had been pre-incubated for 15 min in 15 ml Rapidhyb buffer (Amersham) in a Roller-Blot Hybridizer (Techne HB-3D, Cambridge, UK) for 1 hour. After washing under different stringencies, depending on the probes used, the membranes were exposed overnight to film. The autoradiographs were scanned using a GS-700 imaging densitometer (BioRad, Inc., Hercules, Calif.) and analyzed using Quantity One software (BioRad). A series of primer sets were designed using available sequences for inserts or for related mRNA cds.

C=Cc1c(C)c2cc3[nH]c(cc4nc(cc5nc(cc1[nH]2)C(C)=C5CCC(=O)[O-])C(CCC(=O)[O-])=C4C)c(C)c3C=C.[Co+2] [CoPP, Cobaltic protoporphyrin IX]
decrease in hypothalamic phosphocreatine concentrations ([1]; failed to meet statistical significance): about 40% | decrease in hypothalamic creatine concentrations ([1]; versus vehicle-treated or fasted rats, p=0.008): about 20% | Real-Time PCR [2]: 0.97 ± 0.050 arbitrary units | increase of 11G2L expression compared to vehicle-treated animals (fed or fasted) ([3]; Northern densitometry normalized to L32, p<0.02): approximately 20% | Northern Blot Densitometry of 11G2L ([3]; hypothalamus, 48 hours after icv, normalized to L32 mRNA): 1.023±* arbitrary units
